In test [1] the target is T1, ERCC1-XPF heterodimer in A549 cells (Homo sapiens, UniProt Q92889).
T1 construct: endogenous in cells; host or cells: A549
T1 sequence (Q92889 1-916): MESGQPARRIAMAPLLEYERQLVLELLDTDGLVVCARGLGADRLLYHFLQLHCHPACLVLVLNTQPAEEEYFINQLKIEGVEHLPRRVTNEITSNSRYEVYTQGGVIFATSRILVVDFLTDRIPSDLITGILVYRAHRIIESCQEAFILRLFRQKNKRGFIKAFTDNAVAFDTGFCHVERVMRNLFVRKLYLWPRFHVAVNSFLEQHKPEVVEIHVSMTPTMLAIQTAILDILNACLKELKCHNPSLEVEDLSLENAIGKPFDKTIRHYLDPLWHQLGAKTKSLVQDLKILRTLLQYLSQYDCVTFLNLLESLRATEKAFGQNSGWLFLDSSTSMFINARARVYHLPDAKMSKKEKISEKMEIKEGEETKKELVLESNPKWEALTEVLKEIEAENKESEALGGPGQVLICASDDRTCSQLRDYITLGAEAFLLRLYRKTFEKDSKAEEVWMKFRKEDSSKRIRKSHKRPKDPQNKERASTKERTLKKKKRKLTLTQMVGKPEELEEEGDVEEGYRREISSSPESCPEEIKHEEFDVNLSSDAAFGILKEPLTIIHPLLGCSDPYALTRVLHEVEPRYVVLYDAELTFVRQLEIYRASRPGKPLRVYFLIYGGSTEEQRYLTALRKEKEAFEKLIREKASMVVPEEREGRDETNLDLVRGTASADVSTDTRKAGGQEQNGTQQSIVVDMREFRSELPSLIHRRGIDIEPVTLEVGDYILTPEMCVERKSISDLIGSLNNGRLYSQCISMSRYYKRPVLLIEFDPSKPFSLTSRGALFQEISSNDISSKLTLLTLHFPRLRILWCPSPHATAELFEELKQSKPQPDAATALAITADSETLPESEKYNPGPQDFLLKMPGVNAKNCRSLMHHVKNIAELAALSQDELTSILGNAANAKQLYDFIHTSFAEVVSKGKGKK
The arrangement: method as in PMID 33399940. Particulars: cited from earlier work; for PLA: inhibition of the interaction between ERCC1 and XPF (in words): A549 cells treated with 20 μM cisplatin and 1 μM inhibitor.

Test [2] deals with HCT-116 cells. Briefly: Clonogenic survival assay, cyclophosphamide treatment. In kind it is cell-based, human. As for the experimental part:
[…] The medium was then replaced with drug and inhibitor-free fresh medium. After incubation for another 9 days to allow for colony formation, the plates were stained with crystal violet, colonies were counted, and plating efficiency and surviving fraction were calculated. Data were plotted using GraphPad Prism version 5.04. software.

The target in test [3] is T2, ERCC1-XPF (Homo sapiens, UniProt Q92889).
T2 construct: the final purity of the full-length ERCC1-XPF heterodimer was determined to be ~35%; His6; made in house; host or cells: E. coli BL21(DE3)
T2 sequence (Q92889 1-916): T1 sequence (Q92889 1-916)
Briefly: Microplate fluorescence incision assay (endonuclease activity). It is filed as biochemical. Particulars: 10 μM inhibitor, 10 min preincubation. From the text:
Recombinant human ERCC1–XPF wild-type protein (containing polyhistidine (His-6) tags) was expressed from a bicistronic plasmid (kindly provided by Dr. Richard Wood, University of Texas MD Anderson Cancer Center, Smithville, TX) in the E. coli BL21(DE3) strain, Following previously described procedures ([70], [78]) the proteins extracted from E. coli were eluted from a ProBond Nickel-Chelating Resin (Thermo Fisher Scientific) and then a Hi-trap heparin column (GE Healthcare). Fractions containing ERCC1–XPF were dialyzed, concentrated, and stored at −80°C in 10 mM HEPES, pH 7.4, 2.5 mM β-mercaptoethanol, 0.01% CHAPS, 0.25 mM EDTA, 50% glycerol, and 25 mM NaCl. Based on polyacrylamide gel separation and Coomassie Blue staining, the final purity of the full-length ERCC1-XPF heterodimer was determined to be ~35%.
We employed a previously described protocol ([60], [70], [78]) in which the incision of the stem–loop substrate [6-FAM-5′-[…](20T)[…]-3′-dabcyl] (100 nM in 50 mM Tris-HCl, pH 8, 20 mM NaCl, 0.5 mM DDT, and 0.75 mM MnCl2) mediated by ERCC1-XPF (25 ng) in a total volume of 20 μL at 25°C was monitored by fluorescence using a FLUOstar Optima fluorimeter (BMG Labtech) with Optima software and excitation and emission wavelengths of 485 and 520 nm, respectively, for 5.5 min. The final concentration of inhibitor in the reaction was 10 μM prepared from a 200 μM stock solution in DMSO. With a molecular weight of 151 KDa for the XPF-ERCC1 heterodimer, a concentration of 25 ng of protein in 20 µl reaction buffer and a purity of 35%, the molar concentration of the enzyme was estimated to be 2.9 nM. Data were plotted using Microsoft Excel 2016.
An in vitro fluorescence-based assay was used to assess the ability of the synthesized compounds to inhibit the endonuclease activity of ERCC1-XPF. This assay has been previously described ([60], [70], [78]) and makes use of a stem-loop DNA substrate with a 5’-FAM fluorescent dye, and a 3’-dabcyl quencher. When ERCC1-XPF can cleave the DNA substrate, a 5’-FAM containing molecule is liberated from the stem-loop (and the quencher) and the fluorescence of the solution increases. The increase of the fluorescence of the solution can be observed in Figure 3A , in the absence of any inhibitor. To determine the influence of the inhibitory compounds, the protein was preincubated for 10 minutes with 10 μM of each inhibitor prior to addition of the substrate.

Test [4] relates to HCT-116 cells. Briefly: Cellular repair of cyclobutane pyrimidine dimers (cellular NER) after UVC. It is filed as cell-based, human. Particulars: 2 μM. On the procedure:
We followed the protocol of Mirzayans et al. ([79]) with minor modifications as previously described ([70]). Inhibitor compounds were dissolved in DMSO and applied to a final DMSO concentration of 0.2% in media and 0.2% DMSO was used as the vehicle control. Mouse anti-thymine dimer monoclonal antibody (cat. no. MC-062, Kamiya Biomedical Company, Seattle, WA) was used for the immunofluorescence following UVC irradiation of the cells and fluorescent microscopic evaluation and measurement of fluorescence intensity were performed using MetaXpress, version 6.2.1.704, software (Molecular Devices, Sunnyvale, California). Data were plotted using GraphPad Prism version 5.04 software.
Immunofluorescent detection of cyclobutane pyrimidine dimers (CPD) generated in the DNA of HCT-116 cells after exposure to UVC radiation was used to measure NER. Our observations that approximately 80% of CPD were removed 24 hours post irradiation in the absence of any inhibitors mirrors previous observations ([70], [79]).

Test [5] relates to HCT-116 cells. Briefly: Clonogenic survival assay, UV treatment. In kind it is cell-based, human. Particulars: 0.5 μM. On the procedure: HCT-116 cells (100–800 cells depending on the UV dose) were plated in triplicate in 60-mm Petri dishes in DMEM/F12 medium. Following overnight attachment of the cells in a humidified atmosphere containing 5% CO2 at 37°C, the cells were treated with 0.5 μM compound 6 or 10 in DMSO (as described in section 2.7) for 4 h before the medium was removed, and the cells exposed to increasing doses (0–10 J/m^2) of UV-C radiation. The cells were then cultured for a further 24 h in the presence of inhibitor and then for an additional 9 days in the absence of inhibitor to allow for colony formation. Colonies were stained with crystal violet and counted using a Colcount instrument (Oxford Optronix, Abingdon UK) to facilitate determination of plating efficiency and surviving fraction. Data were plotted using GraphPad Prism version 5.04 software.

Structures are written as SMILES.

`CN(C)CCN1CCN(Cc2cc(Nc3c4ccc(Cl)cc4nc4ccc(O)cc34)ccc2O)CC1` [Compound 5]: the “PLA: inhibition of the interaction between ERCC1 and XPF (in words)” value in test [1] was “clear inhibition of the interaction between ERCC1 and XPF”. Moreover, the “PLA: disruption of ERCC1-XPF heterodimerization (in words)” value in test [1] (A549 not treated with cisplatin, 1 μM inhibitor) was “significant disruption of ERCC1-XPF heterodimerization”.

For `O=P1(N(CCCl)CCCl)NCCCO1` (stereo not drawn) [cyclophosphamide, reference compound], in test [2] (50 μM cyclophosphamide, no inhibitor), the “cell survival, cyclophosphamide alone” value is listed as 91.5%.

As to `COc1ccc2nc3cc(Cl)ccc3c(Nc3ccc(O)c(CN4CCN(CCCN(C)C5Cc6ccccc6C5)CC4)c3)c2c1` [Compound 8], in test [3], the “inhibition of ERCC1-XPF endonuclease activity (in words, vs control and 4)” value (from here on “inhibition … (in words, vs control and 4)”) was “some inhibition of ERCC1-XPF endonuclease activity”.

For `COCCN1CCN(Cc2cc(Nc3c4ccc(Cl)cc4nc4ccc(OC)cc34)ccc2O)CC1` [Compound 15], the “inhibition … (in words, vs control and 4)” value in test [3] was “some inhibition of ERCC1-XPF endonuclease activity”.

For `CNC(=O)C(C)(C)CN1CCN(Cc2cc(Nc3c4ccc(Cl)cc4nc4ccc(OC)cc34)ccc2O)CC1` [Compound 12], the “inhibition … (in words, vs control and 4)” value in test [3] was “some inhibition of ERCC1-XPF endonuclease activity”.

On to `COc1ccc2nc3cc(Cl)ccc3c(Nc3ccc(O)c(CN4CCN(CCNCc5ccccc5)CC4)c3)c2c1` [Compound 10], for which the “effect on CPD removal / cellular NER (in words)” value in test [4] is given as “no significant effect on CPD removal”. The “sensitization to UVC radiation (in words)” value in test [5] was “no sensitization of HCT-116 to UVC radiation”. In addition, the “sensitization to cyclophosphamide (in words)” value in test [2] (0.5 μM 6, 10 at 1.0 μM or 0.5 μM) is recorded as “no significant sensitization of HCT-116 cells to cyclophosphamide”. Moreover, in test [3], the “inhibition … (in words, vs control and 4)” value is “some inhibition of ERCC1-XPF endonuclease activity”.

With `COc1ccc2nc3cc(Cl)ccc3c(Nc3ccc(O)c(CN4CCN(CCNCc5cccs5)CC4)c3)c2c1` [Compound 11], the “inhibition … (in words, vs control and 4)” value in test [3] is reported as “some inhibition of ERCC1-XPF endonuclease activity”.

For `COc1ccc2nc3cc(Cl)ccc3c(Nc3ccc(O)c(CN4CCN(C)CC4)c3)c2c1` [Compound 1], in test [1], the “PLA: inhibition of the interaction between ERCC1 and XPF (in words)” value was “clear inhibition of the interaction between ERCC1 and XPF”.
